Data reported in US9708314B2, “Heterocyclic amide compound” (NISSAN CHEMICAL INDUSTRIES, LTD., priority 2013, dated 2017).

Tests used:
Assay type in all cases: in vivo
Lolium multiflorum Lam. = experiment: Test Example 4: herbicidal effect by application to foliage (diluvial soil, plastic box); details: for K: herbicidal effect on Lolium multiflorum Lam.: application to foliage, application herbicide amount 320 g/ha; for K (Lolium multiflorum Lam.) herbicidal effect grade: foliage application, 320 g/ha
Summary of the method: (§1)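 Plants were grown in sterilized diluvial soil in a greenhouse at 25-30° C for 14 days, then sprayed on stems and leaves with water-diluted emulsion formulation at set rates in g/ha. Weed control and crop injury were scored 3 weeks after treatment on a 0-5 herbicidal-ratio scale, from 0 (≤5%) to 5 (≥90%).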

Setaria viridis = experiment: as above; details: for G: herbicidal effect on Setaria viridis: application to foliage, application herbicide amount 320 g/ha; for G (Setaria viridis) herbicidal effect grade: foliage application, 320 g/ha
Summary of the method: as §1

Amaranthus retroflexus = experiment: as above; details: for N: herbicidal effect on Amaranthus retroflexus: application to foliage, application herbicide amount 320 g/ha; for N (Amaranthus retroflexus) herbicidal effect grade: foliage application, 320 g/ha
Summary of the method: as §1

Digitaria ciliaris = experiment: as above; details: for F: herbicidal effect on Digitaria ciliaris: application to foliage, application herbicide amount 320 g/ha; for F (Digitaria ciliaris) herbicidal effect grade: foliage application, 320 g/ha
Summary of the method: as §1

Alopecurus myosuroides = experiment: as above; details: for J: herbicidal effect on Alopecurus myosuroides: application to foliage, application herbicide amount 320 g/ha; for J (Alopecurus myosuroides) herbicidal effect grade: foliage application, 320 g/ha
Summary of the method: as §1

Stellaria media = experiment: as above; details: for P: herbicidal effect on Stellaria media: application to foliage, application herbicide amount 320 g/ha; for P (Stellaria media) herbicidal effect grade: foliage application, 320 g/ha
Summary of the method: as §1

Scirpus juncoides = experiment: Test Example 1: herbicidal activity, application before weed generation in submerged conditions; details: Application herbicide amount 320 g/ha; Seventeenth Table
Summary of the method: (§2)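 Pre-emergence application to water surface of submerged pots (4 cm depth, alluvial soil) on sowing day, with 2.5-leaf rice transplanted; emulsion diluted to g/ha rates. Grown in greenhouse at 25–30 °C; 0–5 herbicidal/crop-effect score after three weeks.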

Monochoria vaginalis = experiment: as above; details: Application herbicide amount 320 g/ha; Seventeenth Table
Summary of the method: as §2

[1] = system: Echinochloa oryzacola Vasing.; experiment: as above; details: Application herbicide amount 320 g/ha; Seventeenth Table
Summary of the method: as §2

| Compound | K: herbicidal effect on Lolium multiflorum Lam. (Lolium multiflorum Lam.) | G: herbicidal effect on Setaria viridis (Setaria viridis) | N: herbicidal effect on Amaranthus retroflexus (Amaranthus retroflexus) | F: herbicidal effect on Digitaria ciliaris (Digitaria ciliaris) | J: herbicidal effect on Alopecurus myosuroides (Alopecurus myosuroides) | P: herbicidal effect on Stellaria media (Stellaria media) | B: Scirpus juncoides (herbicidal effect grade) (Scirpus juncoides) | C: Monochoria vaginalis (herbicidal effect grade) (Monochoria vaginalis) | A: Echinochloa oryzicola Vasing. (herbicidal effect grade) [1] | K (Lolium multiflorum Lam.) herbicidal effect grade (Lolium multiflorum Lam.) | G (Setaria viridis) herbicidal effect grade (Setaria viridis) | N (Amaranthus retroflexus) herbicidal effect grade (Amaranthus retroflexus) | F (Digitaria ciliaris) herbicidal effect grade (Digitaria ciliaris) | J (Alopecurus myosuroides) herbicidal effect grade (Alopecurus myosuroides) | P (Stellaria media) herbicidal effect grade (Stellaria media) |
| --- | --- | --- | --- | --- | --- | --- | --- | --- | --- | --- | --- | --- | --- | --- | --- |
| C=CCN(C)c1nnc2c(C(=O)Nc3nnco3)ccc(C(F)(F)F)n12 [1-172] | 1 (Herbicidal ratio of 5% or more and less than 20%) | 4 (Herbicidal ratio of 70% or more and less than 90%) | 5 (Herbicidal ratio of 90% or more (almost completely withered)) | 5 (Herbicidal ratio of 90% or more (almost completely withered)) | 1 (Herbicidal ratio of 5% or more and less than 20%) | 5 (Herbicidal ratio of 90% or more (almost completely withered)) | 4 (Herbicidal ratio of 70% or more and less than 90%) | 3 (Herbicidal ratio of 40% or more and less than 70%) | 5 (Herbicidal ratio of 90% or more (almost completely withered)) | – | – | – | – | – | – |
| Cn1nnnc1NC(=O)c1ccc(C(F)(F)F)n2cnnc12 [2-001] | 1 (Herbicidal ratio of 5% or more and less than 20%) | 0 (Herbicidal ratio of 5% or less (almost no effect)) | 5 (Herbicidal ratio of 90% or more (almost completely withered)) | 3 (Herbicidal ratio of 40% or more and less than 70%) | 0 (Herbicidal ratio of 5% or less (almost no effect)) | 5 (Herbicidal ratio of 90% or more (almost completely withered)) | 3 (Herbicidal ratio of 40% or more and less than 70%) | 4 (Herbicidal ratio of 70% or more and less than 90%) | 2 (Herbicidal ratio of 20% or more and less than 40%) | – | – | – | – | – | – |
| Cc1nnc2c(C(=O)Nc3nnnn3C)ccc(C(F)(F)F)n12 [2-002] | 1 (Herbicidal ratio of 5% or more and less than 20%) | 3 (Herbicidal ratio of 40% or more and less than 70%) | 5 (Herbicidal ratio of 90% or more (almost completely withered)) | 4 (Herbicidal ratio of 70% or more and less than 90%) | 1 (Herbicidal ratio of 5% or more and less than 20%) | 5 (Herbicidal ratio of 90% or more (almost completely withered)) | 3 (Herbicidal ratio of 40% or more and less than 70%) | 3 (Herbicidal ratio of 40% or more and less than 70%) | 2 (Herbicidal ratio of 20% or more and less than 40%) | – | – | – | – | – | – |
| CC(C)c1nnc2c(C(=O)Nc3nnnn3C)ccc(C(F)(F)F)n12 [2-003] | 3 (Herbicidal ratio of 40% or more and less than 70%) | 5 (Herbicidal ratio of 90% or more (almost completely withered)) | 5 (Herbicidal ratio of 90% or more (almost completely withered)) | 5 (Herbicidal ratio of 90% or more (almost completely withered)) | 3 (Herbicidal ratio of 40% or more and less than 70%) | 5 (Herbicidal ratio of 90% or more (almost completely withered)) | 5 (Herbicidal ratio of 90% or more (almost completely withered)) | 5 (Herbicidal ratio of 90% or more (almost completely withered)) | 5 (Herbicidal ratio of 90% or more (almost completely withered)) | – | – | – | – | – | – |
| Cn1nnnc1NC(=O)c1ccc(C(F)(F)F)n2c(CS(C)(=O)=O)nnc12 [2-034] | – | – | – | – | – | – | 4 (Herbicidal ratio of 70% or more and less than 90%) | 4 (Herbicidal ratio of 70% or more and less than 90%) | 5 (Herbicidal ratio of 90% or more (almost completely withered)) | 5 (Herbicidal ratio of 90% or more (almost completely withered)) | 5 (Herbicidal ratio of 90% or more (almost completely withered)) | 5 (Herbicidal ratio of 90% or more (almost completely withered)) | 5 (Herbicidal ratio of 90% or more (almost completely withered)) | 5 (Herbicidal ratio of 90% or more (almost completely withered)) | 5 (Herbicidal ratio of 90% or more (almost completely withered)) |
| Cn1nnnc1NC(=O)c1ccc(C(F)(F)F)n2c(C[S+]([O-])CC(F)(F)F)nnc12 (stereo not drawn) [2-035] | – | – | – | – | – | – | 3 (Herbicidal ratio of 40% or more and less than 70%) | 3 (Herbicidal ratio of 40% or more and less than 70%) | 4 (Herbicidal ratio of 70% or more and less than 90%) | 4 (Herbicidal ratio of 70% or more and less than 90%) | 5 (Herbicidal ratio of 90% or more (almost completely withered)) | 5 (Herbicidal ratio of 90% or more (almost completely withered)) | 5 (Herbicidal ratio of 90% or more (almost completely withered)) | 3 (Herbicidal ratio of 40% or more and less than 70%) | 5 (Herbicidal ratio of 90% or more (almost completely withered)) |
| Cn1nnnc1NC(=O)c1ccc(C(F)(F)F)n2c(S(C)(=O)=O)nnc12 [2-037] | – | – | – | – | – | – | 5 (Herbicidal ratio of 90% or more (almost completely withered)) | 5 (Herbicidal ratio of 90% or more (almost completely withered)) | 5 (Herbicidal ratio of 90% or more (almost completely withered)) | 5 (Herbicidal ratio of 90% or more (almost completely withered)) | 5 (Herbicidal ratio of 90% or more (almost completely withered)) | 5 (Herbicidal ratio of 90% or more (almost completely withered)) | 5 (Herbicidal ratio of 90% or more (almost completely withered)) | 5 (Herbicidal ratio of 90% or more (almost completely withered)) | 5 (Herbicidal ratio of 90% or more (almost completely withered)) |
| CCS(=O)(=O)c1nnc2c(C(=O)Nc3nnnn3C)ccc(C(F)(F)F)n12 [2-038] | – | – | – | – | – | – | 5 (Herbicidal ratio of 90% or more (almost completely withered)) | 5 (Herbicidal ratio of 90% or more (almost completely withered)) | 5 (Herbicidal ratio of 90% or more (almost completely withered)) | 5 (Herbicidal ratio of 90% or more (almost completely withered)) | 5 (Herbicidal ratio of 90% or more (almost completely withered)) | 5 (Herbicidal ratio of 90% or more (almost completely withered)) | 5 (Herbicidal ratio of 90% or more (almost completely withered)) | 5 (Herbicidal ratio of 90% or more (almost completely withered)) | 5 (Herbicidal ratio of 90% or more (almost completely withered)) |
| CC(C)c1nnc2c(C(=S)Nc3nnnn3C)ccc(C(F)(F)F)n12 [2-039, 3-Isopropyl-N-(1-methyl-1H-tetrazol-5-yl)-5-(trifluoromethyl)-[1,2,4]triazolo[4,3-a]pyridine-8-carbothioamide] | – | – | – | – | – | – | 5 (Herbicidal ratio of 90% or more (almost completely withered)) | 5 (Herbicidal ratio of 90% or more (almost completely withered)) | 5 (Herbicidal ratio of 90% or more (almost completely withered)) | 3 (Herbicidal ratio of 40% or more and less than 70%) | 5 (Herbicidal ratio of 90% or more (almost completely withered)) | 5 (Herbicidal ratio of 90% or more (almost completely withered)) | 5 (Herbicidal ratio of 90% or more (almost completely withered)) | 3 (Herbicidal ratio of 40% or more and less than 70%) | 5 (Herbicidal ratio of 90% or more (almost completely withered)) |
| CCOC(=O)Cc1nnc2c(C(=O)Nc3nnnn3C)ccc(C(F)(F)F)n12 [2-040] | – | – | – | – | – | – | 4 (Herbicidal ratio of 70% or more and less than 90%) | 4 (Herbicidal ratio of 70% or more and less than 90%) | 4 (Herbicidal ratio of 70% or more and less than 90%) | 1 (Herbicidal ratio of 5% or more and less than 20%) | 3 (Herbicidal ratio of 40% or more and less than 70%) | 5 (Herbicidal ratio of 90% or more (almost completely withered)) | 5 (Herbicidal ratio of 90% or more (almost completely withered)) | 1 (Herbicidal ratio of 5% or more and less than 20%) | 5 (Herbicidal ratio of 90% or more (almost completely withered)) |
